Test results: patent US10570179B2, “Substituted urea depsipeptide analogs as activators of the CLPP endopeptidase” (priority 2016, dated 2020)
Converted amounts (≈) assume the structure as drawn. Read-outs that look alike come from different tables or passages of the source. Numbered stars: 1 amine (or outer) side, 2 acyl side, 3 side chain; on linkers, the order of the positions; unused ones are H or OH. Bridge positions count the residues as written; N and C are the ends. Square brackets hold non-standard residues; d marks the D form. Peptide text beside a SMILES is read from it. * marks the point of attachment. Piperazine(2S-CO,4-Me) = CN1CCN[C@H](C(=O)O)C1; Phe(3-OMe) = COc1cccc(C[C@H](N)C(=O)O)c1; Morpholine(3S-CO) = O=C(O)[C@@H]1COCCN1; Phe(3-Me) = Cc1cccc(C[C@H](N)C(=O)O)c1; X4 = O=C1CN([*:1])[C@H](C(=O)[*:2])CN1; NH(4-Cl-2-F-phenyl) = Fc1cc(Cl)ccc1N*; Pro(4R-Me) = C[C@H]1CN[C@H](C(=O)O)C1; Hyp = O=C(O)[C@@H]1C[C@@H](O)CN1; NH(4-Et-phenyl) = CCc1ccc(N*)cc1; NH(4-Me-phenyl) = Cc1ccc(N*)cc1; aThr = C[C@H](O)[C@H](N)C(=O)O; Pip = O=C(O)[C@@H]1CCCCN1; X3 = c1cc2c(cc1N*)OCCO2; CO = O=C([*:1])[*:2]

Columns and labels:
Plasma stability assay [1] = type: in vitro ADME, mouse
In short: (§1)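 Compounds at 10 μM final in human or mouse plasma, incubated at 37 °C and sampled at 0, 3, 24 and 48 h in triplicate. Reactions quenched with cold acetonitrile containing warfarin internal standard; parent measured by LC-MS. Half-life from least-squares first-order fit.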

[2] = Microsomal metabolic stability; type: in vitro ADME, mouse
In short: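 CD-1 mouse liver microsomes (0.6381 mg/mL protein microsomal solution, 0.1 M potassium phosphate pH 7.4 with EDTA) were incubated with compound and an NADPH-regenerating system at 37 °C, in triplicate. Acetonitrile/warfarin quench at 0, 15, 30, 60, 120 and 240 min, then LCMS. Half-life came from a first-order least-squares fit.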

Solubility determination = type: physicochemical; settings: for solubility kinetic at 10 min: 22 °C, aqueous buffer, kinetic from dmso stock
In short: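 DMSO stock spiked into DPBS at 100 µM final, in triplicate, shaken 10 min, then centrifuged 20 min at 22 °C. Supernatant quantified by UPLC-UV and single-ion-recording MS against DMSO calibration standards (0.098–100 µM), using 1/x²-weighted linear regression.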

Plasma stability assay [3] = type: in vitro ADME, human
In short: as §1

SMILES | Mouse (Plasma stability assay [1]; mouse, 10 μM) | Mouse ([2]; CD-1, mouse, pH 7.4) | μsol (μM) (Solubility determination) | solubility kinetic at 10 min (Solubility determination) | Human (Plasma stability assay [3]; human, 10 μM) | Mouse (Plasma stability assay [1]; plasma stability half-life, mouse plasma, 37° C.) | Mouse ([2]; microsomal metabolic stability half-life, mouse liver microsomes) | solubility kinetic at 10 min (Solubility determination; solubility in DPBS, 100 μM test samples, LCMS, read-out: LCMS) | μsol (μM) (Solubility determination; solubility) | Human (Plasma stability assay [3]; plasma stability half-life, human plasma, 37° C.)
COc1cccc(C[C@H](NC(=O)Nc2ccc(Cl)cc2F)C(=O)N[C@H]2COC(=O)[C@@H]3C[C@@H](C)CN3C(=O)[C@H](C)NC(=O)[C@@H]3CN(C)CCN3C(=O)[C@@H]3CCCN3C2=O)c1 [Compound 19, (S)-2-(3-(4-CHLORO-2-FLUOROPHENYL)UREIDO)-3-(3-METHOXYPHENYL)-N-((6AS,12S,15AS,17R,21S,23AS)-2,17,21-TRIMETHYL-6,11,15,20,23-PENTAOXOOCTADECAHYDRO-2H,6H,11H,15H-PYRAZINO[2,1-I]DIPYRROLO[2,1-C:2′,1′-L][1]OXA[4,7,10,13]TETRAAZACYCLOHEXADECIN-12-YL)PROPANAMIDE] ({NH(4-Cl-2-F-phenyl)-CO}-[Phe(3-OMe)]SP[Piperazine(2S-CO,4-Me)]A[Pro(4R-Me)]; ester 2-C) | 12.82 h | 0.80 ± 0.05 h | 51.5 ± 1.1 µM | 55.9 ± 2.9 µM (≈ 47 µg/mL) | 62.38 h |  |  |  |  | 
Cc1cccc(C[C@H](NC(=O)Nc2ccc(Cl)cc2F)C(=O)N[C@@H]2C(=O)N3CCC[C@H]3C(=O)N3CC(=O)NC[C@H]3C(=O)N[C@@H](C)C(=O)N3C[C@H](C)C[C@H]3C(=O)O[C@H]2C)c1 [Compound 20, (S)-2-(3-(4-CHLORO-2-FLUOROPHENYL)UREIDO)-3-(M-TOLYL)-N-((6AS,12S,13S,15AS,17R,21S,23AS)-13,17,21-TRIMETHYL-3,6,11,15,20,23-HEXAOXOOCTADECAHYDRO-2H,6H,11H,15H-PYRAZINO[2,1-I]DIPYRROLO[2,1-C:2′,1′-L][1]OXA[4,7,10,13]TETRAAZACYCLOHEXADECIN-12-YL)PROPANAMIDE] ({NH(4-Cl-2-F-phenyl)-CO}-[Phe(3-Me)][aThr]P[X4]A[Pro(4R-Me)]; ester 2-C) | 13.2 h | 6.24 ± 0.7 h | 29.9 ± 1.5 µM | 34.4 ± 1.1 µM (≈ 28.9 µg/mL) | 14.0 h |  |  |  |  | 
Cc1cccc(C[C@H](NC(=O)Nc2ccc3c(c2)OCCO3)C(=O)N[C@@H]2C(=O)N3CCC[C@H]3C(=O)N3CCCC[C@H]3C(=O)N[C@@H](C)C(=O)N3C[C@H](C)C[C@H]3C(=O)O[C@H]2C)c1 [Compound 21, (S)-2-(3-(2,3-DIHYDROBENZO[B][1,4]DIOXIN-6-YL)UREIDO)-3-(M-TOLYL)-N-((2R,6S,8AS,14AS,20S,21S,23AS)-2,6,21-TRIMETHYL-5,8,14,19,23-PENTAOXOOCTADECAHYDRO-1H,5H,14H,19H-PYRIDO[2,1-I]DIPYRROLO[2,1-C:2′,1′-L][1]OXA[4,7,10,13]TETRAAZACYCLOHEXADECIN-20-YL)PROPANAMIDE] ({X3-CO}-[Phe(3-Me)][aThr]P[Pip]A[Pro(4R-Me)]; ester 2-C) | >50 h | 3.38 ± 0.37 h | 36.8 ± 1.6 µM | 30.6 ± 0.7 µM (≈ 25.4 µg/mL) | >50 h |  |  |  |  | 
Cc1cccc(C[C@H](NC(=O)Nc2ccc3c(c2)OCCO3)C(=O)N[C@H]2COC(=O)[C@@H]3C[C@@H](C)CN3C(=O)[C@H](C)NC(=O)[C@@H]3CCCCN3C(=O)[C@@H]3CCCN3C2=O)c1 [Compound 22, (S)-2-(3-(2,3-DIHYDROBENZO[B][1,4]DIOXIN-6-YL)UREIDO)-N-((2R,6S,8AS,14AS,20S,23AS)-2,6-DIMETHYL-5,8,14,19,23-PENTAOXOOCTADECAHYDRO-1H,5H,14H,19H-PYRIDO[2,1-I]DIPYRROLO[2,1-C:2′,1′-L][1]OXA[4,7,10,13]TETRAAZACYCLOHEXADECIN-20-YL)-3-(M-TOLYL)PROPANAMIDE] | 46.15 h | 4.48 ± 0.61 h | 7.6 ± 0.3 µM | 3.3 ± 0.2 µM (≈ 2.69 µg/mL) | >50 h |  |  |  |  | 
Cc1cccc(C[C@H](NC(=O)Nc2ccc3c(c2)OCO3)C(=O)N[C@H]2COC(=O)[C@@H]3C[C@@H](C)CN3C(=O)[C@H](C)NC(=O)[C@@H]3CCCCN3C(=O)[C@@H]3CCCN3C2=O)c1 [Compound 23, (S)-2-(3-(BENZO[D][1,3]DIOXOL-5-YL)UREIDO)-N-((2R,6S,8AS,14AS,20S,23AS)-2,6-DIMETHYL-5,8,14,19,23-PENTAOXOOCTADECAHYDRO-1H,5H,14H,19H-PYRIDO[2,1-I]DIPYRROLO[2,1-C:2′,1′-L][1]OXA[4,7,10,13]TETRAAZACYCLOHEXADECIN-20-YL)-3-(M-TOLYL)PROPANAMIDE] | 27.31 h | 35.8 ± 14.7 h | 3.0 ± 0.0 µM | 1.7 ± 0.1 µM (≈ 1.36 µg/mL) | >50 h |  |  |  |  | 
CCc1ccc(NC(=O)N[C@@H](Cc2cccc(C)c2)C(=O)N[C@@H]2C(=O)N3C[C@H](O)C[C@H]3C(=O)N3CCOC[C@H]3C(=O)N[C@@H](C)C(=O)N3C[C@H](C)C[C@H]3C(=O)O[C@H]2C)cc1 [Compound 24, (S)-2-(3-(4-ETHYLPHENYL)UREIDO)-N-((6AS,8R,12S,13S,15AS,17R,21S,23AS)-8-HYDROXY-13,17,21-TRIMETHYL-6,11,15,20,23-PENTAOXOOCTADECAHYDRO-6H,11H,15H-[1,4]OXAZINO[3,4-I]DIPYRROLO[2,1-C:2′,1′-L][1]OXA[4,7,10,13]TETRAAZACYCLOHEXADECIN-12-YL)-3-(M-TOLYL)PROPANAMIDE] ({NH(4-Et-phenyl)-CO}-[Phe(3-Me)][aThr][Hyp][Morpholine(3S-CO)]A[Pro(4R-Me)]; ester 2-C) | >50 h | 1.03 ± 0.05 h | 48.4 ± 0.7 µM | 43.7 ± 0.9 µM (≈ 35.7 µg/mL) | 90.86 h |  |  |  |  | 
CCc1ccc(NC(=O)N[C@@H](Cc2cccc(C)c2)C(=O)N[C@@H]2C(=O)N3C[C@H](O)C[C@H]3C(=O)N3CCCC[C@H]3C(=O)N[C@@H](C)C(=O)N3C[C@H](C)C[C@H]3C(=O)O[C@H]2C)cc1 [Compound 25, (S)-2-(3-(4-ETHYLPHENYL)UREIDO)-N-((2R,6S,8AS,14AS,16R,20S,21S,23AS)-16-HYDROXY-2,6,21-TRIMETHYL-5,8,14,19,23-PENTAOXOOCTADECAHYDRO-1H,5H,14H,19H-PYRIDO[2,1-I]DIPYRROLO[2,1-C:2′,1′-L][1]OXA[4,7,10,13]TETRAAZACYCLOHEXADECIN-20-YL)-3-(M-TOLYL)PROPANAMIDE] ({NH(4-Et-phenyl)-CO}-[Phe(3-Me)][aThr][Hyp][Pip]A[Pro(4R-Me)]; ester 2-C) | >50 h | 2.35 ± 0.27 h | 9.0 ± 0.3 µM | 18.6 ± 1.17 µM (≈ 15.2 µg/mL) | >50 h |  |  |  |  | 
Cc1ccc(NC(=O)N[C@@H](Cc2cccc(C)c2)C(=O)N[C@@H]2C(=O)N3C[C@H](O)C[C@H]3C(=O)N3CCCC[C@H]3C(=O)N[C@@H](C)C(=O)N3C[C@H](C)C[C@H]3C(=O)O[C@H]2C)cc1 [Compound 26, (S)—N-((2R,6S,8AS,14AS,16R,20S,21S,23AS)-16-HYDROXY-2,6,21-TRIMETHYL-5,8,14,19,23-PENTAOXOOCTADECAHYDRO-1H,5H,14H,19H-PYRIDO[2,1-I]DIPYRROLO[2,1-C:2′,1′-L][1]OXA[4,7,10,13]TETRAAZACYCLOHEXADECIN-20-YL)-3-(M-TOLYL)-2-(3-(P-TOLYL)UREIDO)PROPANAMIDE] ({NH(4-Me-phenyl)-CO}-[Phe(3-Me)][aThr][Hyp][Pip]A[Pro(4R-Me)]; ester 2-C) |  |  |  |  |  | >50 h | 2.49 ± 0.35 h | 45.3 ± 1.89 µM (≈ 36.3 µg/mL) | 47.7 ± 0.4 µM | >50 h
Cc1cccc(C[C@H](NC(=O)Nc2ccc3c(c2)OCCO3)C(=O)N[C@@H]2C(=O)N3C[C@H](O)C[C@H]3C(=O)N3CCOC[C@H]3C(=O)N[C@@H](C)C(=O)N3C[C@H](C)C[C@H]3C(=O)O[C@H]2C)c1 [Compound 27, (S)-2-(3-(2,3-DIHYDROBENZO[B][1,4]DIOXIN-6-YL)UREIDO)-N-((6AS,8R,12S,13S,15AS,17R,21S,23AS)-8-HYDROXY-13,17,21-TRIMETHYL-6,11,15,20,23-PENTAOXOOCTADECAHYDRO-6H,11H,15H-[1,4]OXAZINO[3,4-I]DIPYRROLO[2,1-C:2′,1′-L][1]OXA[4,7,10,13]TETRAAZACYCLOHEXADECIN-12-YL)-3-(M-TOLYL)PROPANAMIDE] ({X3-CO}-[Phe(3-Me)][aThr][Hyp][Morpholine(3S-CO)]A[Pro(4R-Me)]; ester 2-C) | >50 h | 0.79 ± .795 h |  | 45.6 ± 5.6 µM (≈ 38.7 µg/mL) | >50 h |  |  |  |  | 
